“Also recorded” adds a separate entry of the source.
Key:
Format in all cases: in vivo, rat
[1] = Assay B: interstitial collagen volume fraction and hydroxyproline concentration (myocardial fibrosis); conditions: aldosterone/salt-treated uni-nephrectomized Sprague Dawley rats, 4 weeks
Protocol: Assay B: In Vivo Aldosterone Infusion Model Hearts were stained with hematoxylin&eosin and the collagen specific dye picro-sirius red and were analyzed for determination of interstitial collagen volume fraction and morphologic abnormalities (i.e. necrosis, vascular injury). Hydroxyproline concentration was measured in the frozen hearts.

osteopontin = test: Assay B: osteopontin mRNA by quantitative RT-PCR (Taqman); conditions: aldosterone/salt-treated rats receiving vehicle
Protocol: Assay B: In Vivo Aldosterone Infusion Model Determination of osteopontin and COX-2 was performed by quantitative RT-PCR (Taqman). Osteopontin was also identified in the heart by immunohistochemistry.

[2] = test system: Transforming growth factor beta 1 (TGFβ1); test: Assay C: TGFβ1 mRNA, TaqMan; conditions: aldosterone+salt, 7, 14, 30 days
Protocol: The procedure of Assay B was expanded upon in a further study. […] Myocardial tissue from animals in each treatment group was examined after 7, 14, or 30 days of treatment.
Potassium chloride supplementation was added to the saline solution in order to prevent the potential hypokalemia associated with aldosterone excess.
Treatment At the time of the surgery, an Alzet 2002 osmotic minipump (Alza Corp., Palo Alto, Calif.) containing either vehicle (9% ethanol/87% propylene glycol/4% dH2O) or 1.0 mg/mL d-aldosterone (Sigma Chemical, St. Louis, Mo.) was inserted subcutaneously at the nape of the neck. Aldosterone was administered at a dose of 0.75 µg/hour. […]
The fluorogenic 5′-nuclease assay (TaqMan PCR) using Applied Biosystems' 7700 Sequence Detection System (Applied Biosystems, Foster City, Calif.) allowed for real time detection/quantitation of a specific gene by monitoring the increase in fluorescence of a gene-specific, dye-labeled oligonucleotide probe. […] When the probe was annealed to the target gene, fluorescence of 6FAM was prevented by the close proximity of TAMRA. The exonuclease activity of Taq polymerase released the dyes from the oligonucleotide probe by displacing the probe from the target sequence resulting in fluorescence excitation in direct proportion to the amount of target message present. […]

[3] = Assay A: angiotensin II infusion model, urinary Na+/K+ ratio (natriuresis index); conditions: Wistar rats, 1% NaCl, angiotensin II 25 ng/min sc; eplerenone 100 mpk
Description: Electrolyte excretion. The ratio between daily urinary Na^+ excretion and urinary K^+ excretion (U Na^+/K^+ ratio) was used as an index for natriuresis. Urinary Na^+/K^+ ratio was similar in all groups before the start of the treatments, and increased similarly in all animals upon initiation of the high salt diet.

[4] = Survival and cerebral injury in stroke-prone spontaneously hypertensive rats

| Compound | Myocardial fibrosis (interstitial collagen volume fraction, hydroxyproline concentration) [1] | Upregulation of osteopontin mRNA vs control (osteopontin) | TGF-β mRNA levels [2] | Urinary Na+/K+ ratio (index for natriuresis) [3] | Survival ([4]; stroke-prone spontaneously hypertensive rats (FIG. 37)) | Cerebral injury ([4]; stroke-prone spontaneously hypertensive rats (FIGS. 37, 38)) |
| --- | --- | --- | --- | --- | --- | --- |
| C[C@]12CCC(=O)C=C1CC[C@@H]1[C@@H]2[C@@H](O)C[C@]2(C=O)[C@@H](C(=O)CO)CC[C@@H]12 [aldosterone] | absence of myocardial fibrosis | 7 fold | not upregulated at any of the time points examined | – | – | – |
| COC(=O)[C@@H]1CC2=CC(=O)CC[C@]2(C)[C@@]23O[C@@H]2C[C@@]2(C)[C@@H](CC[C@@]24CCC(=O)O4)[C@H]13 [eplerenone] | – | – | – | did not produce a significant diuretic or natriuretic effect | increased survival | reduced cerebral injury; also recorded: decrease in cerebral injury |

Reference: patent US20040037806A1, “Aldosterone blocker therapy to prevent or treat inflammation-related disorders” (Pharmacia Corporation, priority 2002, published 2004)
